Measurements as given in patent US9855265B2, “Methods for treating cancer with TrkA receptor tyrosine kinase antagonists” (VM Oncology LLC, priority 2014, dated 2018).

Experiments:
[1] = biological target: ABL1 (Homo sapiens, UniProt P00519); assay: radiometric kinase assay, other kinases: ABL1; type: biochemical; conditions: duplicate
Method: (§1) Compound inhibition in a radiometric based mixed micelle assay: In a final reaction volume of 25 μL, TrkA (h) ([…]) is incubated with the kinase reaction buffer (20 mM HEPES (pH 7.5), 10 mM MgCl2, 1 mM EGTA, 0.02% Brij 35, 0.02 mg/ml BSA, 0.1 mM Na3VO4, 2 mM DTT, 1% DMSO), 0.2 mg/ml substrate PolyEY(4:1) and […], and [^33P-ATP](specific activity approx. 500 cpm/pmol, concentration as required). The reaction is initiated by the addition of the MgATP mix. After incubation for at least 40 minutes at room temperature, the reaction is stopped by the addition of 5 μL of a 3% phosphoric acid solution. 10 μL of the reaction is then spotted onto a P30 filtermat and washed three times for 5 minutes in 75 mM phosphoric acid and once in methanol prior to drying and scintillation counting. TrkA: Recombinant Human Cytoplasmic Domain (amino acids 441-796), Histidine-tagged, expressed in insect cells. Activated in vitro via auto-phosphorylation. Mw=42.8 kDa. Substrates for kinases: poly(EY) for TRKA; poly(EY)(4:1) with 2 mM MnCl2, average Mw=16 kDa Standard conditions (unless otherwise specified): 30 nM TRKA, 0.2 mg/ml poly(EY)+2 mM MnCl2, and 10 μM ([γ-^33P]) ATP. Using the similar assay condition with other kinases of recombinant human cytoplasmic domain, the activities of other kinases could be also measured.

[2] = biological target: TrkC (Homo sapiens, UniProt Q16288); assay: live whole cell based functional assay, NT3 stimulated TrkC activation; design: expressed in transfected cells; conditions: triplicate
[3] = biological target: P38a/MAPK14 (Homo sapiens, UniProt Q16539); assay: radiometric kinase assay, other kinases: P38a/MAPK14; type: biochemical; conditions: duplicate
P38a/MAPK14, sequence (Q16539 whole entry): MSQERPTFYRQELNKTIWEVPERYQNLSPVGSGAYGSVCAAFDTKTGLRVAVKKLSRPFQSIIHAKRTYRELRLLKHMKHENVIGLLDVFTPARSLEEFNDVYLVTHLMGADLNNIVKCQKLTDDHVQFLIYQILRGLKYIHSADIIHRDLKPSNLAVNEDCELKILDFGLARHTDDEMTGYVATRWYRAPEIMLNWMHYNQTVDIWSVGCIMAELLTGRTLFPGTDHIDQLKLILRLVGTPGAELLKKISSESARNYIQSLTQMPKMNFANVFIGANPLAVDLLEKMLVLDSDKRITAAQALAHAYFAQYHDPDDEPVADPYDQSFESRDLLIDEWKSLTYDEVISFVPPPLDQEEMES
Method: as §1

[4] = biological target: T1, ALK5/TGFB-R1 (Homo sapiens, UniProt P36897); assay: radiometric kinase assay, other kinases: ALK5/TGFB-R1; type: biochemical; conditions: duplicate
T1 construct: other kinases of recombinant human cytoplasmic domain
Method: as §1

[5] = biological target: T2, PDGFRb (Homo sapiens, UniProt P09619); assay: radiometric kinase assay, other kinases: PDGFRb; type: biochemical; conditions: duplicate
T2 construct: other kinases of recombinant human cytoplasmic domain
T2 sequence (P09619 554-1106 limits assumed): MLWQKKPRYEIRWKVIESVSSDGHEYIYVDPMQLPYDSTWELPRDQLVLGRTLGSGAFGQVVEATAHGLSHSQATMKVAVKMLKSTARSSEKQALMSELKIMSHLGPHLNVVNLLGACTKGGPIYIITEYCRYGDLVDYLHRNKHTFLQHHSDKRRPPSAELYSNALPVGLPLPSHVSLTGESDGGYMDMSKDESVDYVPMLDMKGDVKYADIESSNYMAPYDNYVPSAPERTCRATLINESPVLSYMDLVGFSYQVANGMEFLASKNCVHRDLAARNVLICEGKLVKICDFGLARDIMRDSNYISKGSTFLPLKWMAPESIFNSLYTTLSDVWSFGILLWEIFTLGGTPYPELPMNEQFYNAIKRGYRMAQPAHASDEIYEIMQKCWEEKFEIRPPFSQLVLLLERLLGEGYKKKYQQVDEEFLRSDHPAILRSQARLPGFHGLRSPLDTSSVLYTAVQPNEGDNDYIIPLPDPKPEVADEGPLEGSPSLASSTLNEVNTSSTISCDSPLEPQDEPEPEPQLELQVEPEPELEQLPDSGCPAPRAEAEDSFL
Method: as §1

[6] = biological target: JNK3 (Homo sapiens, UniProt P53779); assay: radiometric kinase assay, other kinases: JNK3; type: biochemical; conditions: duplicate
JNK3, sequence (P53779 whole entry): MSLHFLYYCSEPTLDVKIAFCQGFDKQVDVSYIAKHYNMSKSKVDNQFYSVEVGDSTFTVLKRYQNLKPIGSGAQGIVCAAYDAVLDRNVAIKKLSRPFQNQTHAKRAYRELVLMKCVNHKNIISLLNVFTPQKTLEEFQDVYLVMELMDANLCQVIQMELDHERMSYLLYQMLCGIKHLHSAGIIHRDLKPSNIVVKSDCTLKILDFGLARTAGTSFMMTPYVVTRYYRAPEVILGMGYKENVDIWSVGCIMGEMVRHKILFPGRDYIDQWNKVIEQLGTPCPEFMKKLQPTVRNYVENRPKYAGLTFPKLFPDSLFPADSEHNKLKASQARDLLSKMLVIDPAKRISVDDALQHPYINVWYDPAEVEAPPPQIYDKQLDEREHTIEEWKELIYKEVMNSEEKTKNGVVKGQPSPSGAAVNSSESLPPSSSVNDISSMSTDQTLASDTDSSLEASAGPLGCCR
Method: as §1

[7] = biological target: CDK2/cyclinE (Homo sapiens, UniProt P24941); assay: radiometric kinase assay, other kinases: CDK2/cyclinE; type: biochemical; conditions: duplicate
Method: as §1

[8] = biological target: PKCmu/PKD1 (Homo sapiens, UniProt Q15139); assay: radiometric kinase assay, other kinases: PKCmu/PKD1; type: biochemical; conditions: duplicate
PKCmu/PKD1, sequence (Q15139 whole entry): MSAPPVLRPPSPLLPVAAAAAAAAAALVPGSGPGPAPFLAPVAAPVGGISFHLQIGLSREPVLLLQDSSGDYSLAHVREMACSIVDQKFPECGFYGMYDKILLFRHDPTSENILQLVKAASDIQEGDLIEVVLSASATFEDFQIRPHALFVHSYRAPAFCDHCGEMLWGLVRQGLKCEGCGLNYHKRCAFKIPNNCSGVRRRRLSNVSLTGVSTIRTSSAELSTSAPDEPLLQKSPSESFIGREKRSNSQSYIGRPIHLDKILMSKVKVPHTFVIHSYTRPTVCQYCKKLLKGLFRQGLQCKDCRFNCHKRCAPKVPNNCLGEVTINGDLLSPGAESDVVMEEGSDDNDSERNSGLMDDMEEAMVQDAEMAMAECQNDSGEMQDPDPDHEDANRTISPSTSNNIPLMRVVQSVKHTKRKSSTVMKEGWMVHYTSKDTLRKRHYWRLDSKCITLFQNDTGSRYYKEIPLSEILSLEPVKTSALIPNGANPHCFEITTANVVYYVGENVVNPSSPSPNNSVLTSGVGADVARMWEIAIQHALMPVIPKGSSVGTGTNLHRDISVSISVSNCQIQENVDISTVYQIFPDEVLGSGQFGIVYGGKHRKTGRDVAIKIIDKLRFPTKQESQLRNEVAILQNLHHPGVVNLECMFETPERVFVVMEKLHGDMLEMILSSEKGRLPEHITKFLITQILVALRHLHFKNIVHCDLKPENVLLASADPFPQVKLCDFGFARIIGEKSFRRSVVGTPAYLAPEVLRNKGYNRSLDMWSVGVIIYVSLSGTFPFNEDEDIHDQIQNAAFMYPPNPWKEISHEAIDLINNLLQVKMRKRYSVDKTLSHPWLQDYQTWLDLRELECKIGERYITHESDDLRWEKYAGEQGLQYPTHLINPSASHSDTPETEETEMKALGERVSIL
Method: as §1

[9] = system: Panc-1 human pancreatic cancer cells; assay: Cell Viability and Proliferation Assay, Panc-1; type: cell-based; conditions: after 24 incubation
Method: Cell Viability and Proliferation Assays. To assess the chemosensitivity of tumor cells, cell viability is measured by CellTiter-Glo® Luminescent Cell Viability Assay (Promega; Wis., USA) per the manufacturer's instruction. Briefly, 5×10^3 to 7×10^5 cells/ml are cultured in sterile 96-well plates in the presence of increasing concentrations of the drugs (test article, 0 to 100 μM), or vehicle in RPMI medium. The plates are then incubated for 24 to 96 h, and then 100 μl of CellTiter-Glo reagent is added to lyse the cells. After a 10-min incubation at room temperature, the luminescence is recorded in a luminometer with an integration time of 1 s per well. The luminescence signals for the drug-treated cells are normalized by the luminescence signal obtained from vehicle-treated cells. As an alternative method to quantitate cell viability, the trypan blue exclusion dye method was used. Vehicle- or drug-treated cells were assayed by adding trypan blue solution (0.4% in phosphate-buffered saline [PBS]) to the culture medium. After 3 min, the number of dead cells that retained the dye is compared to the total number of cells to calculate cell viability. GraphPad Prism 5 software is used to calculate IC50 and plot effect-dose curve of drugs. Multiplate reader: EnVision 2104 (PerkinElmer). % of control variability=100*[(X(drug_treated)−L(baseline))/(H(vehicle_control)−L(baseline))]. […]

[10] = system: carrageenan-induced pain in rats; assay: Carrageenan Pain Model; type: in vivo, Sprague-Dawley rats; conditions: carrageenan rat model, 150 mg/kg oral dose, compared to indomethacin
Method: Carrageenan Pain Model The carrageenan model is a fast, reliable model used to assess the ability of analgesics to block inflammatory pain. The analgesic effects of test article combinations on pain generation are assayed using the carrageenan-induced pain model in rats. Adult male Sprague-Dawley rats are administered study drugs orally (vehicle, compounds of present disclosure) once daily for 2 days (day −2 and day −1) and 30 minutes prior to the carrageenan injection on day 0 (time=0). For the carrageenan injection, animals are lightly anesthetized and 0.1 ml of 2% carrageenan is injected into the plantar surface of the right hind paw. The positive control indomethacin (30 mg/kg, p.o.) is administered orally immediately before the carrageenan injection. Paw volumes (right and left) are measured using a Plethysmometer before drug administration on day −2 and serve as a baseline measurement. The paw volumes are measured again two hours post carrageenan injection. The degree of mechanical allodynia is measured by a blinded observer using Von Frey filaments applied to the plantar surface of the hind paws in an increasing numerical order. Each filament increases the force applied on the paw. The filaments are applied until animal paw withdrawal is achieved. […] Results are expressed as mean change from baseline across five timepoints post carrageenan injection.

[11] = biological target: MEK1 (Homo sapiens, UniProt Q02750); assay: radiometric kinase assay, other kinases: MEK1; type: biochemical; conditions: duplicate
Method: as §1

[12] = biological target: PKCbetaI (Homo sapiens, UniProt P05771); assay: radiometric kinase assay, other kinases: PKCbetaI; type: biochemical; conditions: duplicate
PKCbetaI, sequence (P05771 whole entry): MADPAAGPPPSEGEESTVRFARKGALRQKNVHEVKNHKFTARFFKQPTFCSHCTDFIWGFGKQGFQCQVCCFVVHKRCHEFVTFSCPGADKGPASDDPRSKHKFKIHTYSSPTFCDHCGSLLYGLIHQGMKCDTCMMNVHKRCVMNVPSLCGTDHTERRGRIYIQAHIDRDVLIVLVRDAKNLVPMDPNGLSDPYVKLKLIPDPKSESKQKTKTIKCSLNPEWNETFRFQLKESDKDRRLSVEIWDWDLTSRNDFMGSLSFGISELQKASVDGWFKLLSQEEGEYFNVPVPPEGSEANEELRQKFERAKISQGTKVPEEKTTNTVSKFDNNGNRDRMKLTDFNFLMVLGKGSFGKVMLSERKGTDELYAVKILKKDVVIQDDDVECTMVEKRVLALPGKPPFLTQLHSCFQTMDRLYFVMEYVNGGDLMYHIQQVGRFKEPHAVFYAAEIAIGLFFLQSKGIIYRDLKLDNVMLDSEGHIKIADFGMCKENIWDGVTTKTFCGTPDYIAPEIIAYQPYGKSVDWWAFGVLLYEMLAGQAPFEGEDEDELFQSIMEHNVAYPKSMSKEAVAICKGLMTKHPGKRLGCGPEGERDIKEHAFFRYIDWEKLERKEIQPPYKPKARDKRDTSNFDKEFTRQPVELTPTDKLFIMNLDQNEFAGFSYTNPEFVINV
Method: as §1

[13] = biological target: T3, PDGFRa (Homo sapiens, UniProt P16234); assay: radiometric kinase assay, other kinases: PDGFRa; type: biochemical; conditions: duplicate
T3 construct: other kinases of recombinant human cytoplasmic domain
Method: as §1

[14] = biological target: TrkB (Homo sapiens, UniProt Q16620); assay: radiometric kinase assay, other kinases: TrkB; type: biochemical; design: other kinases of recombinant human cytoplasmic domain; conditions: duplicate
Method: as §1

[15] = biological target: other more than 400 kinases; assay: radiometric kinase assay, kinase panel; type: biochemical, human; conditions: duplicate
Method: as §1

[16] = biological target: FGR (Homo sapiens, UniProt P09769); assay: radiometric kinase assay, other kinases: FGR; type: biochemical; conditions: duplicate
FGR, sequence (P09769 whole entry): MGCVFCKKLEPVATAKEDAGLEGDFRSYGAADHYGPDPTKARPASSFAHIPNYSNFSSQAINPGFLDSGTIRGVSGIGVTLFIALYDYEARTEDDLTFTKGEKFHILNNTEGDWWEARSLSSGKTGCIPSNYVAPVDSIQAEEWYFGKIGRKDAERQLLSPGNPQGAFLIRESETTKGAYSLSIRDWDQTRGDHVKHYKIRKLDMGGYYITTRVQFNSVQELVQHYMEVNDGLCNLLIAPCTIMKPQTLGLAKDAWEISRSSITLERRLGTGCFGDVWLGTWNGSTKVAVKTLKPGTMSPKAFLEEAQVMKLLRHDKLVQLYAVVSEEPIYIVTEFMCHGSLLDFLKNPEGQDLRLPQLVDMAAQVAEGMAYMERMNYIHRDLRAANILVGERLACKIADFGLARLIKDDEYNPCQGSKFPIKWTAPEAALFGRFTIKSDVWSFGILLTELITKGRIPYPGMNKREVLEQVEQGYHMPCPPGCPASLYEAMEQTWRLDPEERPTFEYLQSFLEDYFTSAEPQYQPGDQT
Method: as §1

[17] = biological target: T4, AXL (Homo sapiens, UniProt P30530); assay: radiometric kinase assay, other kinases: AXL; type: biochemical; conditions: duplicate
T4 construct: other kinases of recombinant human cytoplasmic domain
T4 sequence (P30530 473-894 limits assumed): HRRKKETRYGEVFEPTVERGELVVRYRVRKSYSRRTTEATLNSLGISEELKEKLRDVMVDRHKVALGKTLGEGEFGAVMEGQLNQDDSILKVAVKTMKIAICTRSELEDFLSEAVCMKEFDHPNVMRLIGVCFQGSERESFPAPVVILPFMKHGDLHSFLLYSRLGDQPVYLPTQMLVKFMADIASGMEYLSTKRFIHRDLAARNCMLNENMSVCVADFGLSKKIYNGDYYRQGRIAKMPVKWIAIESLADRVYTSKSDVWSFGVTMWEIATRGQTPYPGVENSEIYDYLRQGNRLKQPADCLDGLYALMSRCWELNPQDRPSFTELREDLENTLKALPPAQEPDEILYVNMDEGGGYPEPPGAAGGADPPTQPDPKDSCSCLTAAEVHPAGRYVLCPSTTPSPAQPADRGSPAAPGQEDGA
Method: as §1

ABL1, sequence (P00519 whole entry): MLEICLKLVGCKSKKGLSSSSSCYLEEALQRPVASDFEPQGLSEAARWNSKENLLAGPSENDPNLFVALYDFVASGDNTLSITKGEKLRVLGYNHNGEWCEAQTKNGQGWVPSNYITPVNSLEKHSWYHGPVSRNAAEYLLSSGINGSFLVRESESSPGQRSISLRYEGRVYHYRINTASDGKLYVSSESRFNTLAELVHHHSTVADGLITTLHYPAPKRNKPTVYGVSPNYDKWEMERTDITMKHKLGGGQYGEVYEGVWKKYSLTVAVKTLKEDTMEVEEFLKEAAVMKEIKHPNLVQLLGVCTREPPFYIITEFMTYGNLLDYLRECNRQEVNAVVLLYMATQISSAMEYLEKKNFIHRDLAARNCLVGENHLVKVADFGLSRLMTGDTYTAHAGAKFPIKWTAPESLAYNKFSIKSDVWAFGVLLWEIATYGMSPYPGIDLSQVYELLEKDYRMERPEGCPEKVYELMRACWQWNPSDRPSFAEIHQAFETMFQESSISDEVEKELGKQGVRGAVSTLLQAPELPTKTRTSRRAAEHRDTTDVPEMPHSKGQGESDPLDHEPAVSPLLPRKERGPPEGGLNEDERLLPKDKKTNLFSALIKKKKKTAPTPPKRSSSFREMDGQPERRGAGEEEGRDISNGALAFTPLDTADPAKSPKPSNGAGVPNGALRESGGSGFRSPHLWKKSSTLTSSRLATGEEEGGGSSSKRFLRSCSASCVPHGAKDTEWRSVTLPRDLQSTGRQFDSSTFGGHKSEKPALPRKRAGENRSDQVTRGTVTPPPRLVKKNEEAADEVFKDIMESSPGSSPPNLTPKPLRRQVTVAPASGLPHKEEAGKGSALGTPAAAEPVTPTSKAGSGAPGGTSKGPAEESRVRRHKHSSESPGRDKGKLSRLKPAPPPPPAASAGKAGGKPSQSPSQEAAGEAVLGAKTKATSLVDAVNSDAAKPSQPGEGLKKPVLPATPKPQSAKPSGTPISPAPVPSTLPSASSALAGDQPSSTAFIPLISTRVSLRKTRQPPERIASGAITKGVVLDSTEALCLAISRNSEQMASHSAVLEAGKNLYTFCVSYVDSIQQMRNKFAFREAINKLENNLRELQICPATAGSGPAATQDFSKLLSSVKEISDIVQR

IC50 [1]: > 10 µM | IC50 [2]: > 10 µM | IC50 [3]: > 10 µM | IC50 [4]: > 10 µM | IC50 [5]: > 10 µM | IC50 [6]: > 10 µM | IC50 [7]: > 10 µM | IC50 [8]: > 10 µM | IC50 [9]: 2 to 5 µM | IC50 [11]: > 10 µM | IC50 [12]: > 10 µM | IC50 [13]: > 10 µM | IC50 [14]: > 10 µM | IC50 [15]: > 10 µM | IC50 [16]: > 10 µM | IC50 [17]: > 10 µM
Structure (SMILES): Nc1c(N2CCN(C3CCCCC3)CC2)cc(Nc2ccc(C(=O)O)cc2)c2c1C(=O)c1ccccc1C2=O [Compound 12, 4-{[4-amino-3-(4-cyclohexylpiperazin-1-yl)-9,10-dioxo-9,10-dihydroanthracen-1-yl]amino}benzoic acid]
relative analgesic effect [10]: about 85%
